{"source": "patent US5470879A", "about": "“Treatment of non-insulin-dependent diabetes” (Laboratories Monal, priority 1992, dated 1995)", "key": {"[1]": {"tested_on": "isolated islets of Langerhans of rat pancreas", "assay": "Insulin secretion of isolated islets of Langerhans of rat pancreas (8.3 mM glucose, 1 hour)", "type": "cell-based, Wistar rats", "procedure": "(§1) In these examples, the pancreatic hormones (insulin and glucagon) were evaluated by radioimmunoassays.\nThis method, which has the advantage of necessitating only a small amount of substance, permits a direct study of the effects of the composition on pancreatic endocrine cells, especially insulin-secreting B cells, to the exclusion of any interference with the exocrine and related tissues.\nThe effect of different concentrations of 4-hydroxyisoleucine on insulin secretion was investigated on isolated islets of Wistar rats, incubated in the presence of 8.3 mM glucose (1.5 g/l) for 1 hour. The results obtained are recorded in FIG. 1, in which the histograms represent the insulin secretion measured over 60 minutes for each dose of 4-hydroxyisoleucine.\nBy way of comparison, the effects of two structural analogues of 4-hydroxyisoleucine, i.e. isoleucine and leucine, were observed under the same conditions, and it could be established that, with these two substances, the stimulatory effect on insulin secretion is apparent only with concentrations 50 to 100 times as high."}, "[2]": {"tested_on": "isolated and perfused rat pancreas", "assay": "Isolated and perfused rat pancreas: insulin secretion, vascular flow, glucagon (8.3 mM glucose)", "settings": "for Insulin secretion: glucose alone 810 ± 83", "procedure": "as §1\nTo carry out this test, the pancreas was completely isolated from all the other neighbouring organs and tissues (spleen, stomach, duodenum, epiploic fat) and perfused in an open circuit with a physiological solution in a perfusion chamber. This preparation has the advantage of preserving the functional and vascular integrity of the organ while depriving it of the regulatory influences (humoral or nervous) to which it is normally subjected.\nIn this example, the experiments were carried out in the presence of an 8.3 mM concentration of glucose. Under these conditions, the effect on insulin secretion of a perfusion of 4-hydroxyisoleucine at a concentration of 200 μM for 10 minutes was studied. […] The perfusion of the 4-hydroxyisoleucine is indicated by the rectangular box with the lines extending downwardly from opposite sides of the box, near the top of the Figure.\nThe amounts of insulin secreted during the 10 minutes of perfusion are shown below: […]"}, "[3]": {"type": "in vivo, Wistar rats", "procedure": "as §1\n(§2) Blood sugar level was assayed using a Technicon autoanalyzer by the potassium ferricyanide method.\nThe results were subjected to a variance analysis followed by the multiple comparison test.\n(§3) During this experiment, Wistar rats were anaesthetized and then provided with catheters in both jugular veins. One catheter enables blood samples needed for the assay of plasma glucose and plasma insulin to be taken, the other catheter is used for the intravenous injection of the test substance."}, "[4]": {"assay": "Intravenous glucose tolerance test (IVGTT) in anaesthetized normal rats fed ad libitum", "type": "in vivo", "procedure": "as §2, §3\nStill in anaesthetized normal rats previously fed ad libitum, an intravenous glucose tolerance test was carried out.\nDissolved glucose was administered intravenously at a dose of 0.3 g/kg in one of the two jugular veins of the rat. […] In FIG. 3, \"o\" indicates the values observed when administering glucose alone, while \".cndot.\" indicates the values observed during the administration of glucose plus 4-hydroxyisoleucine."}, "[5]": {"assay": "Gastric intubation in fasted conscious normal dogs: blood insulin and sugar levels", "type": "in vivo", "settings": "9 mg/kg by gastric intubation", "procedure": "as §1, §2\nDuring a complementary experiment in dogs, we investigated whether 4-hydroxyisoleucine can be active after oral administration, and whether, in this case, this substance retains its insulin-secreting property and consequently its capacity to improve glucose tolerance.\n(§4) Using conscious normal dogs kept fasted for 18 hours, 4-hydroxyisoleucine is dissolved in physiological saline and administered by gastric intubation at a dose of 9 mg/kg.\nBlood samples drawn from one of the two jugular veins enabled the blood insulin and sugar levels of these animals to be evaluated. […] The arrows near the top of FIGS. 4A and 4B represent the approximate time of administration of the 4-hydroxyisoleucine."}, "[6]": {"assay": "Orally induced hyperglycaemia (OGTT) in fasted conscious normal dogs", "type": "in vivo", "procedure": "as §2, §4\nDissolved glucose was administered by gastric intubation at a dose of 1 g/kg.\nIn FIG. 5, \"o\" represents values observed upon administering glucose alone; \".cndot.\" represents values observed in a trial in which glucose plus 4-hydroxyisoleucine is administered. The arrow toward the top of FIG. 5 represents the point of administration of the glucose or glucose plus 4-hydroxyisoleucine. When 4-hydroxyisoleucine (9 mg/kg) is added to the glucose solution administered by gastric intubation, the blood sugar level reaches only 120 mg/dl at the 30th minute, i.e. only +31%."}, "[7]": {"assay": "Acute intraperitoneal toxicity in Swiss mice", "type": "in vivo", "procedure": "The acute toxicity was determined in Swiss mice of both sexes on intraperitoneal administration of a single dose of 1 gram per kilo of 4-hydroxyisoleucine. […] The LDo (zero lethal dose) is greater than 1 gram per kilo under our experimental conditions."}, "[8]": {"settings": "9 mg/kg I.V., -2 min (before injection)"}, "[9]": {"settings": "9 mg/kg I.V., -10 min (before injection)"}, "[10]": {"settings": "9 mg/kg I.V., -15 min (before injection)"}}, "note": "Like-named read-outs stand apart in the source and are kept apart here."}
{"molecule": "C[C@@H]([C@H](C)O)[C@H](N)C(=O)O", "note": "[4-hydroxyisoleucine]", "values": [{"measurement": "minimal effective concentration", "setting": "[1]; Rattus norvegicus, 1 h, read-out: concentration at which a stimulatory effect on insulin secretion is apparent", "value": 200, "unit": "µM"}, {"measurement": "dose dependence of stimulation of insulin secretion", "setting": "[1]; isolated rat islets, 8.3 mM glucose", "value": "increases slightly with the dose"}, {"measurement": "mode of stimulation of insulin secretion", "setting": "[1]; summary of \"in vitro\" tests", "value": "direct effect on the B cell of the islet of Langerhans"}, {"measurement": "Insulin secretion", "setting": "[2]; 50 μM", "value": "1232 ± 93", "unit": "ng/10 min"}, {"measurement": "Insulin secretion", "setting": "[2]; 200 μM", "value": "1520 ± 154", "unit": "ng/10 min"}, {"measurement": "effect on insulin secretion (time course)", "setting": "[2]; 200 μM, perfusion for 10 minutes", "value": "stimulation is immediate and in two phases, and persists throughout the period of the perfusion"}, {"measurement": "Insulin secretion", "setting": "[2]; 500 μM", "value": "2206 ± 213", "unit": "ng/10 min"}, {"measurement": "concentration dependence of stimulatory effect on insulin secretion", "setting": "[2]; 50 to 500 μM", "value": "stimulatory effect increases with the 4-hydroxyisoleucine concentration"}, {"measurement": "pancreatic vascular flow and level of pancreatic glucagon", "setting": "[2]; during perfusion", "value": "no modification"}, {"measurement": "effect on plasma insulin level", "setting": "[3]; 9 mg/kg I.V.", "value": "immediate and particularly important increase"}, {"measurement": "time after injection at which reduction in circulating glucose level becomes significant", "setting": "[3]; 9 mg/kg I.V.", "value": 15, "unit": "min"}, {"measurement": "Blood sugar level", "setting": "[3]; 9 mg/kg I.V., 2 min", "value": "1.26 ± 0.08", "unit": "g/L"}, {"measurement": "Plasma insulin", "setting": "[3]; 9 mg/kg I.V., 2 min", "value": "4.4 ± 1.1", "unit": "ng/mL"}, {"measurement": "Blood sugar level", "setting": "[3]; 9 mg/kg I.V., 5 min", "value": "1.18 ± 0.04", "unit": "g/L"}, {"measurement": "Plasma insulin", "setting": "[3]; 9 mg/kg I.V., 5 min", "value": "9.1 ± 1.0", "unit": "ng/mL"}, {"measurement": "Blood sugar level", "setting": "[3]; 9 mg/kg I.V., 15 min", "value": "0.94 ± 0.09", "unit": "g/L"}, {"measurement": "Plasma insulin", "setting": "[3]; 9 mg/kg I.V., 15 min", "value": "18.5 ± 1.5", "unit": "ng/mL"}, {"measurement": "Blood sugar level", "setting": "[3]; 9 mg/kg I.V., 30 min", "value": "0.99 ± 0.10", "unit": "g/L"}, {"measurement": "Plasma insulin", "setting": "[3]; 9 mg/kg I.V., 30 min", "value": "18.6 ± 1.5", "unit": "ng/mL"}, {"measurement": "Blood sugar level", "setting": "[3]; 9 mg/kg I.V., 45 min", "value": "0.99 ± 0.12", "unit": "g/L"}, {"measurement": "Plasma insulin", "setting": "[3]; 9 mg/kg I.V., 45 min", "value": "14.5 ± 4.8", "unit": "ng/mL"}, {"measurement": "Blood sugar level", "setting": "[3]; 9 mg/kg I.V., 60 min", "value": "0.94 ± 0.10", "unit": "g/L"}, {"measurement": "Plasma insulin", "setting": "[3]; 9 mg/kg I.V., 60 min", "value": "14.4 ± 4.8", "unit": "ng/mL"}, {"measurement": "Blood sugar level", "setting": "[3]; 9 mg/kg I.V., 90 min", "value": "0.89 ± 0.12", "unit": "g/L"}, {"measurement": "Plasma insulin", "setting": "[3]; 9 mg/kg I.V., 90 min", "value": "14.9 ± 5.2", "unit": "ng/mL"}, {"measurement": "Blood sugar level", "setting": "[3]; [8]", "value": "1.34 ± 0.07", "unit": "g/L"}, {"measurement": "Plasma insulin", "setting": "[3]; [8]", "value": "3.4 ± 1.1", "unit": "ng/mL"}, {"measurement": "Blood sugar level", "setting": "[3]; [9]", "value": "1.38 ± 0.09", "unit": "g/L"}, {"measurement": "Plasma insulin", "setting": "[3]; [9]", "value": "2.4 ± 0.1", "unit": "ng/mL"}, {"measurement": "Blood sugar level", "setting": "[3]; [10]", "value": "1.32 ± 0.09", "unit": "g/L"}, {"measurement": "Plasma insulin", "setting": "[3]; [10]", "value": "2.8 ± 0.2", "unit": "ng/mL"}, {"measurement": "reduction in circulating glucose level relative to the starting value", "setting": "[3]; 9 mg/kg I.V., at the 90th minute", "value": "approximately 30%"}, {"measurement": "side effect secondary to the injection (polypnea, tachycardia, hypoxia)", "setting": "[3]; I.V. injection, anaesthetized rats", "value": "no side effect"}, {"measurement": "effect on induced hyperglycaemia", "setting": "[4]; 9 mg/kg I.V. with glucose 0.3 g/kg I.V.", "value": "markedly reduced"}, {"measurement": "Blood sugar level", "setting": "[4]; 9 mg/kg I.V. with glucose 0.3 g/kg I.V., 3rd minute, glucose alone 282 mg/dl", "value": 204, "unit": "mg/dL"}, {"measurement": "change in blood sugar level", "setting": "[4]; 9 mg/kg I.V. with glucose 0.3 g/kg I.V., 3rd minute, glucose alone +112%", "value": "+58%"}, {"measurement": "glucose tolerance", "setting": "[4]; rat, intravenously, summary statement", "value": "improves glucose tolerance"}, {"measurement": "duration of hyperinsulinaemia", "setting": "[5]; fasted", "value": 5, "unit": "min"}, {"measurement": "effect on blood sugar level", "setting": "[5]; fasted", "value": "gradual and discrete reduction in blood sugar level"}, {"measurement": "rise in blood insulin level", "setting": "[5]; from the 3rd minute", "value": "+277%"}, {"measurement": "Blood sugar level", "setting": "[6]; 9 mg/kg intragastric with glucose 1 g/kg, 30th minute, glucose alone 166 mg/dl", "value": 120, "unit": "mg/dL"}, {"measurement": "change in blood sugar level", "setting": "[6]; 9 mg/kg intragastric with glucose 1 g/kg, 30th minute, glucose alone +85%", "value": "+31%"}, {"measurement": "glucose tolerance", "setting": "[6]; dog, orally, summary statement", "value": "improves glucose tolerance"}, {"measurement": "macroscopic deleterious effect on the main organs at autopsy", "setting": "[7]; 1 gram per kilo intraperitoneal, thymus, heart, lungs, liver, stomach, kidneys, adrenals, pancreas, duodenum, genital tract, bladder", "value": "does not appear to disclose any macroscopic deleterious effect"}, {"measurement": "LDo (zero lethal dose)", "setting": "[7]; intraperitoneal, single dose", "value": "greater than 1 gram per kilo"}, {"measurement": "toxic phenomenon over 15 days", "setting": "[7]; single dose 1 gram per kilo intraperitoneal", "value": "does not appear to detect any toxic phenomenon"}]}
